Measurements from patent US20250319054A1, “Synthetic Eicosanoid Analogues for the Treatment and Prevention of Diseases Associated with Increased GDF15 Plasma Concentration” (OMEICOS Therapeutics GmbH, priority 2021, published 2025).

What was measured:
IL-6 [1] = settings: CANTOS study, 4833 CAD patients; cited from earlier work
[2] = test system: patients suffering from CAD; settings: CANTOS study patients with reduced circulating IL-6 levels; cited from earlier work
IL-6 [3] = experiment: Clinical phase II study: IL-6 plasma concentration; assay type: in vivo, human
Procedure: (§1) In a clinical phase II study 119 patients with persistent atrial fibrillation were investigated with regard to the effect of treatment with Compound-02 (structure of general formula (VI)). The patients were divided into a placebo group and three treatment groups with different dosing of Compound-02. The low, medium and high dosing groups received an oral once daily dosing of 4 mg, 12 mg or 24 mg of Compound-02, respectively.
(§2) The study participants received an implantable cardiac monitor (ICM) at least one week prior to start of treatment with Compound-02. The treatment with Compound-02 was maintained for a total period of three months (i.e. Day 1 to Day 99) and started at least 1 week prior to direct current cardioversion (DCC) (see FIG. 1 for details of study protocol).
(§3) Plasma samples were taken from the patients at different study visits. Biomarkers were analyzed at baseline (V3) and at the end of treatment (V8). For 119 study participants complete sets of biomarkers could be obtained.

GDF-15 = experiment: Clinical phase II study: GDF-15 plasma concentration (sandwich ELISA); assay type: in vivo, human; settings: baseline to end-of-treatment (3 months); dose-dependent
Procedure: as §1, §2, §3
GDF-15 concentrations were measured in EDTA treated plasma samples with a solid phase sandwich ELISA (Human GDF-15 Quantikine ELISA kit, R&D Systems) using an immobilized mouse monoclonal anti-GDF-15 and a horseradish peroxidase-conjugated monoclonal anti-GDF-15 antibody. […] The reaction product is measured spectrophotometrically at 450 nm (Sunrise Absorbance Reader, TECAN).

[4] = test system: patients with persistent atrial fibrillation; experiment: Clinical phase II study: safety; assay type: in vivo, human; settings: oral once daily 4, 12 or 24 mg, three months
Procedure: as §1, §2

PTX-3 = experiment: Clinical phase II study: PTX-3 plasma concentration; assay type: in vivo, human; settings: baseline to end-of-treatment (3 months); dose-dependent
Procedure: as §1, §2, §3

Molecule	circulating IL-6 levels (IL-6 [1])	reduction in major adverse cardiac events (MACE) compared to the placebo group [2] [%]	reduction of IL-6 plasma concentration vs. placebo (IL-6 [3]; baseline to end-of-treatment (3 months), dose-dependent) [%]	reduction of IL-6 levels in response to treatment (IL-6 [3]; clinical study)	reduction of GDF-15 plasma concentration vs. placebo (GDF-15) [%]	changes in the ECG or other types of arrhythmias [4]	safety profile [4]	reduction of PTX-3 plasma concentration vs. placebo (PTX-3) [%]
Canakinumab: anti-IL-1β antibody that modulates the IL-6 pathway	reduces circulating IL-6 levels	32						
CNC(=O)C(=O)NCCCC/C=C\CCCCCCCOCC(=O)O [Compound-02]			30	25-40%	30	no changes	good safety profile	55
